From patent publication US20220324913A1, “ANTIGENIC NEURON SPECIFIC ENOLASE PEPTIDES FOR DIAGNOSING AND TREATING AUTISM” (THE REGENTS OF THE UNIVERSITY OF CALIFORNIA, priority 2019, published 2022)

Key:
[1] = test system: maternal autoantibodies (plasma from mothers of ASD and TD children); assay: ELISA of maternal plasma reactivity to recombinant NSE; type: binding, human; details: for Reactivity observed, number of mothers: plasma 1:500
Experimental: Once NSE was identified as a viable antigenic candidate by WB, we evaluated a larger sample set for NSE reactivity using an ELISA method. We tested plasma from 418 mothers enrolled in the CHARGE study with at least one child with ASD (n=232) or control samples from mothers of typically developing children (TD; n=186). Microtiter plates were coated with 100 μl of NSE (Novus Biologicals, Littleton, Colo.) at 2 μg/ml in carbonate coating buffer pH 9.6, incubated overnight at 4° C., washed four times with PBST 0.05%, and blocked with 2% Super Block (Thermo Scientific, Rockford, Ill.) for 1 hour at room temperature (RT). The plasma samples were diluted 1:500 and run in duplicate. Following dilution, 100 μl of diluted sample was added to each well, incubated for 1.5 hours, washed 4×, then incubated with 1:10,000 goat anti-human IgG-HRP IgG (Kirkegaard & Perry Laboratories, Inc., Gaithersburg, Mass.) for 1 hour. The plates were then washed and detection was performed by adding 100 μl of BD optEIA liquid substrate for ELISA (BD Biosciences, San Jose, Calif.). After 4 minutes, the reaction was stopped with 50 μl of 2N HCl. The absorbance was measured at 490-450 nm using an iMark Microplate Absorbance Reader (Biorad, Hercules, Calif., USA).
For the ELISA assay, positive cutoff values for reactivity to NSE were determined using a ROC curve. The ROC curve was created by plotting the true positive rate against the false positive rate at various threshold settings. We therefore created our curve using seven positive samples (labeled as +) from mothers that have a child with ASD and were positive by WB (true positive samples) along with the test samples. By using the positive samples as the reference event, the cutoff has greater specificity (less false positives) although sacrificing some sensitivity (limit of detection). The ROC plots sensitivity versus 1−Specificity for each value creating an Area Under the Curve (AUC) that is a representation of the accuracy of the test. Youden's index was used to calculate the cutoff.
NSE was identified by mass spectrometry as a potential target of the maternal autoantibodies and, based on its critical role in neurodevelopment, we chose to further evaluate NSE as a potential MAR ASD biomarker. Recombinant NSE was used to verify maternal autoantibody reactivity first by WB followed by ELISA. […] Therefore, we utilized an approach similar to that used for the seven previously-described MAR autoantigens to probe the samples for differential epitope recognition between ASD and TD groups.

maternal autoantibodies = assay: Western blot of recombinant proteins probed with maternal plasma; type: binding, human; details: compared with NNE, ALDOC and CKB; plasma 1:800
Experimental: To test autoantibody reactivity to FMB Fraction #12 that contained proteins between 37-45 kDa, the fraction was probed with maternal plasma samples as described previously (FIG. 1D). In summary, 200 μg of protein were denatured by heating at 100° C. for 10 min in SDS buffer and separated on a 12% SDS-PAGE gel at 200V for 1 hour. Proteins were transferred to a 0.2 μm nitrocellulose membrane overnight (10V for 16 hours) at 4° C. To confirm the transfer, the membrane was stained with Ponceau dye and cut into 3 mm strips that were labeled and blocked with 1% casein buffer. Plasma samples were then diluted (1:400), added to the strips, incubated for 1.5 hours at RT followed by five washes, and incubated with 1:20,000 goat anti-human IgG-HRP for 30 minutes. After five washes, detection was performed by adding 800 μl of Super Signal substrate and strips were placed on a glass plate to be imaged using the FluoroChem 8900 imager. Images were scored as 0 if negative and 1 if positive.
The top 4 commercially available antigens identified by mass spectrometry with a 100 C.I. were selected for further evaluation. To evaluate antibody reactivity against our top hits including NSE, NNE, ALDOC, and CKB, 2 μg protein of recombinant protein (Novus Biologicals, Littleton, Colo.) were probed with diluted maternal plasma (1:800) by WB as described previously. […]

## NSE: recombinant neuron specific enolase protein (Novus Biologicals), target autoantigen of maternal autoantibodies
[1]; mothers that had a child with ASD
  Reactivity observed, percent of mothers: 6.2%
[1]; mothers that have a typically developing child (TD)
  Reactivity observed, percent of mothers: 5%
[1]; of 186 mothers that have a typically developing child
  Reactivity observed, number of mothers: 21
[1]; of the 232 mothers that had a child with ASD
  Reactivity observed, number of mothers: 26
Maternal autoantibodies
  Maternal autoantibody reactivity against recombinant protein: greatest specificity
